# Measurements published in patent US9408891B2, “Methods of using gelsolin to treat or prevent bacterial sepsis” (priority 2003, dated 2016).
# Entries after “also recorded” stand apart in the source; their conditions may differ. Ends that are not written are not given here. * marks the point of attachment. RhodamineB = CCN(CC)c1ccc2c(-c3ccccc3C(=O)*)c3ccc(=[N+](CC)CC)cc-3oc2c1
# How the values were obtained:
# gelsolin = gelsolin (Homo sapiens, UniProt P06396); assay: Actin severing activity of gelsolin (50 nM) with LTA or lysolipids; type: biochemical; details: for inhibition of gelsolin by lysolipids: lipid below 1 μM
# Sequence of gelsolin (P06396 28-782): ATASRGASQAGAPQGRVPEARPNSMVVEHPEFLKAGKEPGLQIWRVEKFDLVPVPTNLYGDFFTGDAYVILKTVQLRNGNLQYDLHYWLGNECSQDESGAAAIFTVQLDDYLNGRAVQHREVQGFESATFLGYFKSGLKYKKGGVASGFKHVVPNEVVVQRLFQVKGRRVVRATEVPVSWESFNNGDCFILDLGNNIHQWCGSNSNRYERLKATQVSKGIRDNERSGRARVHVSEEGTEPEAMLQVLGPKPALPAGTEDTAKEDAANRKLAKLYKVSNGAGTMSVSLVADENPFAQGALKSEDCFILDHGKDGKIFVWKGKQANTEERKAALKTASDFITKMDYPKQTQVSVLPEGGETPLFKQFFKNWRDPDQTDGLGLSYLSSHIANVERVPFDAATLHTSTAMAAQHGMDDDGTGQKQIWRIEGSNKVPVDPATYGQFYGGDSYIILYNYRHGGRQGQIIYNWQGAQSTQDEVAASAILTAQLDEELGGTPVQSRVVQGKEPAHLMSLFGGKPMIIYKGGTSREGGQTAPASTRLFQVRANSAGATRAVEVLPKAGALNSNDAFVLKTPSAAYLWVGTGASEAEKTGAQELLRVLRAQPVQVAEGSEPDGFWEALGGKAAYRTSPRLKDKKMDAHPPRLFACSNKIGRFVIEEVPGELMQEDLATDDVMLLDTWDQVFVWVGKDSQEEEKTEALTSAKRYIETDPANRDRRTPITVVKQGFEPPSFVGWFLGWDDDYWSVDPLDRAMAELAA
# Method: (§1) The tested gelsolin concentration was 50 nM; LTA ranged from 0-50 μM; Pyrene-F-actin was 0.3 μM. Recording changes in fluorescently-labeled (rhodamine B-labeled) gelsolin peptide PBP10 (10 μM), indicates a specific interaction between gelsolin and LTA.
# [1] = biological target: T1, recombinant human gelsolin (rhGLS) (Homo sapiens, UniProt P06396); assay: Actin filament severing activity of purified gelsolin (pyrene F-actin depolymerization); type: biochemical; details: molar basis comparison
# T1 construct: purchased Biogen IDEC, Inc., Cambridge, Mass; host or cells: E. coli
# T1 sequence (P06396 28-782): as above
# Method: To determine gelsolin's severing activity, rates of fluorescence decrease were evaluated during depolymerization. Monomeric G-actin was prepared from an acetone powder of rabbit skeletal muscle according to previously published methods (Spudich et al., J. Biol. Chem […]). The non-polymerizing solution contained 2 mM TRIS, 0.2 mM CaCl2, 0.5 mM ATP (adenosine triphosphate), 0.2 mM DTT (dithiothreitol) pH 7.4. Actin was polymerized by adding 150 mM KCl and 2 mM MgCl2 to the G-actin solutions and incubating for 1 hour at room temperature.
# For F-actin severing assays, in general, a small volume (typically 5 μl) of the gelsolin composition is added to a similar volume of pyrene-labeled F-actin at a concentration adjusted to provide an actin:gelsolin ratio of approximately 10:1 (typically 1 μM gelsolin and 10 μM actin). This mixture is the diluted to 0.5 μM in a larger volume of F-actin buffer, and the filament severing efficiency is calculated from the initial slope of the fluorescence change. This reflects the rate of depolymerization that, in turn, is proportional to the number of cuts made by gelsolin. The LPS/gelsolin reaction can be done under any ionic condition, and the addition to F-actin requires the presence of […] Ca^2+ to activate the gelsolin. […] The actin nucleation reaction is similar except that in the latter case, the gelsolin/LPS mixture is added to a more dilute solution of G-actin (typically, 1 or 2 μM) in low ionic strength buffer followed immediately by addition of 150 mM KCI and 2 mM MgCl2 to initiate polymerization.
# (§2) As shown, recombinant human gelsolin (rhGLS) (FIG. 4A) and blood serum (FIG. 4B) severing activity was measured in 0.4 μM pyrene-labeled F-actin samples (polymerized with 50% pyrene-labeled G-actin), after adding gelsolin (16 nM)/serum (2.5 μl), or their combination with one of the following: LPS (from different species), PIP2 (phosphatidyl-inositol-4,5-bisphosphate), LPA (lysophosphatidic acid), lipid A (the LPS derivative lacking polysaccharide) or PS (phosphatidylserine). The fluorescence intensity of F-pyrene actin was then monitored for 10 minutes, and the severing activity was calculated based on decreasing fluorescence. Severing activity was determined from a decrease in rate of fluorescence during depolymerization, and the depolymerization rate was calculated from the slope of the early decrease in fluorescence.
# human platelets = assay: Collagen-induced aggregation of gel-filtered platelets; type: cell-based
# Method: To isolate human platelets, blood from healthy volunteers was collected in acid-citrate dextrose. Platelet-rich plasma obtained after centrifugation (15 minutes, 110×g) at room temperature, was supplemented with apyrase (0.5 U/ml) (Sigma-Aldrich) to degrade excess nucleotides. Platelets were sedimented by centrifugation (10 minutes, 1000×g), suspended in buffer A (139 mM NaCl, 2.8 mM KCl, 0.8 mM MgCl2, 0.8 mM KH2PO4, 8.9 mM NaHCO3, 10 mM HEPES, 5.6 mM glucose, 0.3% albumin, pH 7.35) and filtered on a 50 ml column of Sepharose 2B to obtain gel-filtered platelets (GFP).
# Platelet aggregation was initiated by adding collagen (10 μg/ml) (Chrono-Log Corp., Havertown, Pa.). Platelet aggregation was monitored using a Chronolog Lumi-Aggregometer (Chrono-Log Corp.). Changes in light transmission were recorded for 10 minutes, using a PowerLab/200 instrument and MacLab Chart program Version 3.2. When required before activation, the platelet suspension was reacted with LPS, or LPS-preincubated with the SEQ ID No:1 peptide (QRLFQVKGRR).
# [2] = Neutron scattering of LPS with gelsolin peptide; type: physicochemical; details: preliminary neutron scattering
# Excerpt: The molecular structure of LPS and its complexes with proteins can be measured at nm resolution by X-ray and neutron scattering, as well as by electron and atomic force microscopy.
# At present, the calculated diameter (36 nm) is greater than that which has been previously reported for pure LPS micelles, and the difference in size may reflect another structural feature. In additional experiments with more variations in gelsolin/LPS or peptide, LPS ratios will reveal if there are significant changes in LPS particle structure when these peptides bind LPS.
# [3] = test system: NF-κB translocation in rat primary astrocytes; assay: NF-κB translocation to the nucleus in astrocytes; type: cell-based; details: astrocytes, 2 hour; LPS 2 μM or TNF-α 10 ng/ml
# Method: Rat primary astrocytes were obtained from prenatal rats and maintained for 14 days in culture before use. Embryos (E17-E19) were removed by caesarian section from a Sprague-Dawley rat and the hippocampi were surgically removed. The tissue was digested in trypsin/DNAse at 37° C., centrifuged (1000×5 min) and filtered to derive suspensions from each pup. Cells were grown in an incubator at 37° C. and 5% CO2 in DMEM (Dulbecco's Modified Eagle's Medium; BioWhittaker/Cambrex BioScience, East Rutherford, N.J.), supplemented with Ham's F12 (Sigma-Aldrich, St. Louis, Mo.) and 5% fetal bovine serum (FBS) (Hyclone, Logan, Utah) for 7 days, followed by an additional 7 days in Neurobasal medium (Gibco, Grand Island, N.Y.) also supplemented with 5% FBS, 2 mM l-glutamine, 50 μg/ml streptomycin and 50 U/ml penicillin. In each experiment, the medium was changed to serum-free at 6-12 hours prior to addition of LPS, TNF-α, or gelsolin.
# HAECs and astrocytes cultures were incubated for 10 minutes in medium containing 10 μg/ml LPS alone, or LPS that had been pre-incubated with 0.16 mg/ml of human gelsolin. Cultures were fixed with ice-cold methanol and immunostained for F-actin with fluorescein isothiocyanate (FITC)-labeled phalloidin (Molecular Probes, Eugene, Oreg.). In astrocyte cultures, NF-κB translocation was manipulated by a 2 hour incubation in serum-free medium containing one of the following: 10 ng/ml TNF-α, 10 μg/ml LPS alone, or LPS that had been preincubated with 0.16 mg/ml human gelsolin. Location of transcription factor nuclear factor-kappaB (NF-κB) was observed using a monoclonal antibody to NF-κB (Molecular Probes), and cell nuclei were detected by counter-staining with 4′, 6-diamidino-2-phenylindole dihydrochloride (DAPI) (Sigma).
# [4] = test system: human neutrophils / human aortic endothelial cells (HAEC); assay: Neutrophil adhesion to LTA-stimulated HAEC; type: cell-based; details: LTA 10 μg/ml
# Excerpt: To investigate whether gelsolin can prevent gram-positive bacterial inflammation, the effect of LTA-mediated activation of human neutrophils was examined. Neutrophils were selected because their adhesion to human aorta endothelial cells (HAEC) is a hallmark of inflammation.
# Neutrophils were isolated from human blood using the endotoxin-free Lympholyte-poly kit (Cedarlane, Ontario, Canada). The isolated neutrophil cells were resuspended in RPMI media. […] To quantify the adhesion, the neutrophils were labeled with calcein-AM (5 μM for 30 minutes at 37° C.).
# [5] = biological target: T2, PBP10 (PIP2-binding site of gelsolin) (Homo sapiens, UniProt P06396); assay: Rhodamine-B fluorescence change of gelsolin peptide PBP10 after adding lipids; details: for fluorescence quenching / change of rhodamine-B peptide: 2 μM peptide, buffer A pH 7.0, 15 min
# T2 construct: made in house; host or cells: solid phase peptide synthesis
# Method: (§3) Therefore, to determine changes of gelsolin OD at 280 nm, different amounts of LPS, LPA and PS were added to recombinant human gelsolin (rhGLS) solutions and OD emission spectra were recorded using spectrophotometer Genesys 6 (Thermo-Spectronic, USA).
# Interaction of LPS and gelsolin was examined using rhodamine B- and pyrene-labeled SEQ ID No:1 (QRLFQVKGRR). The effect of LPS on gelsolin was determined in terms of the rhodamine-B fluorescent changes of PBP10 peptide in the presence of different lipids (FIG. 1C); and the fluorescence emission spectra of pyrene-labeled SEQ ID No:1 (2 μM) in the presence of LPS from Escherichia coli (1.2 μM), PIP2 (0.82 μM) and LPA (0.82 μM) (FIG. 1D) The results using the pyrene-derivatized gelsolin peptide confirmed the LPS induced clustering of the peptide with resulting excimer fluorescence of the pyrene group, which was evident as a large increase in fluorescence emission at 480 nm.
# as §1
# [6] = biological target: T3, gelsolin activity in whole human serum (Homo sapiens, UniProt P06396); assay: Actin filament severing activity of whole human serum; type: biochemical; details: larger amounts needed than with pure gelsolin
# T3 construct: from tissue; host or cells: whole human serum (2.5 µl)
# T3 sequence (P06396 28-782): as above
# Method: as §2
# [7] = biological target: T1, recombinant human gelsolin (rhGLS); assay: Change of gelsolin OD at 280 nm after adding lipids; type: binding; details: OD 280 nm
# Method: as §3
# [8] = Solid phase binding of 3H-LPS to peptide-coated wells; parameters: species or system Salmonella minnesota; details: for binding of 3H-LPS to peptide-coated surfaces: solid phase, wells coated with peptide
# Method: To provide chemical and functional evidence that gelsolin binds LPS through its lipid-binding domain, a solid phase assay was conducted in which radiolabeled LPS was added to wells coated with different amounts of rhodamine-B-labeled-SEQ ID No:1 (rhodamine-B-QRLFQVKGRR, derived from the PIP2-binding site of gelsolin and termed “PBP10”), or to a truncated peptide (rhodamine-B-QRL), in the absence or presence of unlabeled LPS, respectively.
# Tritium-labeling of LPS was done by a modification of the procedure of Watson and Riblet (Watson et al., J. Immunol 114:1462-8 (1975)). A sample (2 mg) of LPS from Salmonella minnesota Re595 (Sigma Chemical Co., St. Louis, Mo.) was oxidized (150 minutes, 20° C.) with sodium periodate (3×10^−2 M). After destruction of the oxidant with 1.0 M ethylene glycol, aldehyde groups were reduced (18 hours at 4° C.) with an ice-cold solution of NaB [^3H]4 (0.46 GBq, 481 GBq/mmole, wherein GBq refers to a unit of radioactivity) (Amersham-Pharmacia Biotech, Buckinghamshire, England) in 200 μl of ice-cold borate buffer (0.05 M, pH 9.5). Excess sodium borohydride was destroyed with 5 μl of acetic acid. After two washings (centrifugation at 100,000×g for 15 minutes) in 400 μl of an ice-cold water-ethanol mixture (1:1 by vol.), the radiolabeled [^3H]-LPS (9×10^5 cpm/μg; 2×10^3 cpm/pmole) was stored at −20° C. until used.
# To measure [^3H] labeled-LPS-binding, polystyrene ELISA-type microplates (96 wells) were coated with PBP10 or rhodamine-B-QRL (RhB-QRL) by incubation for 18 hours at 4° C. with a solution (100 μl, 500 pmole/well) in saline. After three washings with 100 μl saline, the wells were then incubated at room temperature with [^3H]-LPS (360,000 c.p.m.), in the presence or absence of unlabeled LPS (20 μg/well), in a binding medium (100 μl) containing bovine serum albumin (50 μg) in saline. After 3 hours of incubation, the plates were washed three times with 100 μl saline washes, and the remaining bound radioactivity was measured.
compound,measurement,setting,value
"CCCCCCCCCCCCC/C=C/[C@@H](O)[C@@H](N)COP(=O)(O)OCC[N+](C)(C)C [SPC, Sphingosylphosphocholine]",inhibition of gelsolin by lysolipids,gelsolin,at least as strongly as lysophosphatidic acid (LPA); also recorded: also inhibit gelsolin
Lipid A,inhibitory effect on severing activity of purified gelsolin,[1],"weaker but still significant inhibitory effect; also recorded: weaker, but detectable inhibition; also recorded: weaker, but still significant inhibitory effect"
"QRLFQVKGRR (peptide fragment of gelsolin) [gelsolin SEQ ID No:1, Gelsolin residues 160-169 peptide]",reversal of LPS inhibition of collagen-induced platelet activation,"human platelets; peptide added to LPS before addition to platelets, collagen 10 μg/ml","restored, in a peptide concentration-dependent manner"
same,effect of peptide alone on collagen-mediated platelet functions,human platelets; without LPS,had no effect on collagen-mediated platelet functions
same,effect of peptide on calculated diameter of LPS,[2],"small, but significant increase in calculated diameter of LPS"
TNF-α,induction of NF-κB translocation to the nucleus,[3],caused NF-κB translocation to the nucleoplasm
lipoteichoic acid [LTA],inhibition of gelsolin's actin severing activity,"gelsolin; LTA 0-50 μM, pyrene-F-actin 0.3 μM",nearly as well as LPS does; also recorded: potent inhibitor
same,stimulation of neutrophil binding to the endothelial surface,[4],stimulated binding of calcein AM-labeled neutrophils
same,binding to PBP10 judged by changes in PBP10 fluorescence,[5]; PBP10 10 μM,approximately the same avidity as PIP2; also recorded: approximately the same efficiency as PIP2; also recorded: binds to the PIP2-binding site within the PBP10 peptide
lysophosphatidic acid [LPA],inhibition of gelsolin activity in whole human serum,[6],much less effective in serum than in pure solution; also recorded: appeared to lack its effect in serum
same,effect on absorbance of gelsolin,[7],diminished the absorbance of gelsolin
same,inhibitory effect on severing activity of purified gelsolin,[1],strongly inhibited
"phosphatidylinositol-4,5-bisphosphate [PIP2]",inhibition of gelsolin activity in whole human serum,[6],able to inhibit gelsolin activity
same,fluorescence quenching / change of rhodamine-B peptide,[5],induced identical concentration-dependent fluorescence quenching
platelet activating factor [PAF],inhibition of gelsolin by lysolipids,gelsolin,do not inhibit gelsolin
rhodamine-B-QRL,binding of 3H-LPS to peptide-coated surfaces,[8],did not bind LPS
same,fluorescence quenching / change of rhodamine-B peptide,[5],no fluorescence change
rhodamine-B-QRLFQVKGRR (RhodamineB-QRLFQVKGRR) [PBP10],reduction of 3H-LPS binding by excess unlabeled LPS,[8]; 5-fold excess of unlabeled LPS,approximately 50%
same,binding of 3H-LPS to peptide-coated surfaces,[8],saturably bound; also recorded: bound in a saturable manner
same,inhibition of labeled LPS binding in the presence of excess LPS,[8]; unlabeled LPS 20 μg/well,substantial inhibition
